Measurements: patent publication US20240150287A1, “N-(BENZOYL)-PHENYLALANINE COMPOUND, PHARMACEUTICAL COMPOSITION CONTAINING SAME, AND USE THEREOF” (Hangzhou Apeloa Medicine Research Institute Co., Ltd., priority 2021, published 2024)

molecular target: recombinant human integrin α4β7 (binding to recombinant human MAdCAM-1) (Homo sapiens (Human), UniProt P13612+P26010); assay: MAdCAM-1/α4β7 integrin binding inhibition activity evaluation test (α4β7-MAdCAM-1 ELISA); conditions: plate-coated recombinant human MAdCAM-1, recombinant human α4β7, 2 h room temperature, free form of compound
Sequence (P13612 34-970): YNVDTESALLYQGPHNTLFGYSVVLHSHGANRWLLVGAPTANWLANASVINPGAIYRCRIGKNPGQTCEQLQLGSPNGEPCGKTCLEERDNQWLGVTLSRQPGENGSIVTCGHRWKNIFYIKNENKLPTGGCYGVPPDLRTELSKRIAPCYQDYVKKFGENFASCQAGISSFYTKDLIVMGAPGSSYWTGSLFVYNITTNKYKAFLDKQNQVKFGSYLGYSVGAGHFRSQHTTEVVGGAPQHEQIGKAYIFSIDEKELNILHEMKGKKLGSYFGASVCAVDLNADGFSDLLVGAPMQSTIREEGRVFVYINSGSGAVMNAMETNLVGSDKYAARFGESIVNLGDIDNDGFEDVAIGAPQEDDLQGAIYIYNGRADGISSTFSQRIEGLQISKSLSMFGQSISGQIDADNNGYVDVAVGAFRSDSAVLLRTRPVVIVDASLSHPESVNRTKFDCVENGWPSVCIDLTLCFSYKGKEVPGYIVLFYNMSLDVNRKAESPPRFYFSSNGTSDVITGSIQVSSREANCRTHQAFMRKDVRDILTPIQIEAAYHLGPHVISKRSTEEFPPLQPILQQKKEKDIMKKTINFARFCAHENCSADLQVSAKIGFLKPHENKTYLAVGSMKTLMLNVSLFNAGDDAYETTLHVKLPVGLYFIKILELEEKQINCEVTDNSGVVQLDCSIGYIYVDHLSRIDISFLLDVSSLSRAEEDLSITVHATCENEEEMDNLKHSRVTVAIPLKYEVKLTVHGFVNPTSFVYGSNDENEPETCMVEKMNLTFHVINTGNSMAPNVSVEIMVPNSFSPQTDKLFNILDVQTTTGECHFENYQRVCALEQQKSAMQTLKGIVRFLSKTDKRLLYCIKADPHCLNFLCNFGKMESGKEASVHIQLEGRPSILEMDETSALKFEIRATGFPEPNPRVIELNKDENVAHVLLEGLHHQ
Sequence (P26010 20-723): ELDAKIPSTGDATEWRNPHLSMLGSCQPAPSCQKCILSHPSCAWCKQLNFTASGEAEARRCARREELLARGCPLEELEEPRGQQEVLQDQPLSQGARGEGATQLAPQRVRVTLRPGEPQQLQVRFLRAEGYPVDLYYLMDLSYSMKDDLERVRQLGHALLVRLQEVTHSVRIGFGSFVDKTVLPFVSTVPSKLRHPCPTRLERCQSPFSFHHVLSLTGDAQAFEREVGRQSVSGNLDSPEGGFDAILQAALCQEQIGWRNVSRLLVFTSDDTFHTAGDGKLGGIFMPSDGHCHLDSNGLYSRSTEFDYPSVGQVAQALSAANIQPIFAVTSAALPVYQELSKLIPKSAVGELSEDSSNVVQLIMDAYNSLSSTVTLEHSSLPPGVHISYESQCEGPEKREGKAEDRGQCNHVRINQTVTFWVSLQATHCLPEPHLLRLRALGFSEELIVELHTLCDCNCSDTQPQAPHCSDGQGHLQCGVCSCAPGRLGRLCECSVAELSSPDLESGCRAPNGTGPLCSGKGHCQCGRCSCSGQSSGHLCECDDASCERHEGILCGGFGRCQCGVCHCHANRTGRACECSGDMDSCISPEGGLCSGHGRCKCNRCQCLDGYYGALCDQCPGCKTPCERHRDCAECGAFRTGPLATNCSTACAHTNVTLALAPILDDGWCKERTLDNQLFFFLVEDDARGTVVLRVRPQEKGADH
Procedure: EXAMPLE: MADCAM-1/α4β7 INTEGRIN BINDING INHIBITION ACTIVITY EVALUATION TEST (α4β7-MADCAM-1 ELISA)
Coat the 96-well microplate (Costar) with 50 μL of recombinant human MAdCAM-1 (R&D Systems) solution per well, and incubate overnight (12-18 hours) at 4° C. Wash three times with 150 μL of TBS buffer per well. Block plate with 150 μL per well with blocking buffer for 1 h at 37° C. Wash three times with 150 μL of TBS buffer per well. Dilute the recombinant human integrin α4β7 (R&D Systems) with TBS buffer containing 0.1% bovine serum albumin (BSA), then add to the 96 well plate with 50 μL per well. Add 1 μL of test compound or DMSO, cover, incubate at room temperature for 2 h, wash three times with 150 μL of TBS buffer per well. Dilute the anti-β7 antibody (R&D Systems) with 0.1% BSA TBS buffer, then add to the 96 well plate with 50 μL per well, cover, incubate at room temperature for 1 h, wash three times with 150 μL of TBS buffer per well. Add 50 μL of streptavidin-HRP (R&D Systems) per well, incubate at room temperature for 20 min, wash three times with 150 μL of TBS buffer per well. Add 50 μL of TMB substrate solution (Sigma) per well, incubate at room temperature for 5-30 min, and add 25 μL of stop solution per well to stop the reaction. Finally, measure absorbance at 450 nm with microplate reader (SpectraMax 340PC. Molecular Devices). Repeat the test to find the binding rate of cells at each concentration when the absorbance of the well without the test substance is used as 100%, and calculate the concentration IC50 that causes 50% binding inhibition and summarize the results in Table 1.
It should be stated that, as a test compound, the free form of the compound synthesized in the above examples is used.

Structure (SMILES)	IC50 [nM]
O=C(N[C@@H](Cc1ccc(N2C(=O)C3(CCOCC3)c3cccc(Cl)c32)cc1)C(=O)O)c1c(F)cccc1Cl [Example 7, (S)-3-(4-(7-chloro-2-oxo-2′,3′,5′,6′-tetrahydrospiro[indoline-3,4′-pyran]-1-yl)phenyl)-2-(2-chloro-6-fluorobenzamide)propionic acid]	16.1
O=C(N[C@@H](Cc1ccc(N2C(=O)C3(CC3)c3cc(F)c(F)cc32)cc1)C(=O)O)c1c(F)cccc1Cl [Example 1, (S)-2-(2-chloro-6-fluorobenzamide)-3-(4-(5′,6′-difluoro-2′-oxospirino[cyclopropane-1,3′-indoline]-1′-yl)phenyl)propionic acid]	14.3
O=C(N[C@@H](Cc1ccc(N2C(=O)C3(CC3)c3ccc(F)c(F)c32)cc1)C(=O)O)c1c(F)cccc1Cl [Example 15, (S)-2-(2-chloro-6-fluorobenzamide)-3-(4-(6′,7′-difluoro-2′-oxospirino[cyclopropane-1,3′-indoline]-1′-yl)phenyl)propionic acid]	5.62
O=C(N[C@@H](Cc1ccc(N2C(=O)C3(CC3)c3cccc(Cl)c32)cc1)C(=O)O)c1c(F)cccc1Cl [Example 2, (S)-3-(4-(7′-chloro-2′-oxospiro[cyclopropane-1,3′-indoline]-1′-yl)phenyl)-2-(2-chloro-6-fluorobenzamide) propionic acid]	2.57
Cn1c(=O)n(-c2ccc(C[C@H](NC(=O)c3c(F)cccc3Cl)C(=O)O)cc2)c2c(F)c(F)ccc21 [Example 33, (S)-2-(2-chloro-6-fluorobenzoylamino)-3-(4-(6,7-difluoro-3-methyl-2-exo-2,3-dihydro-1H-benzo[d]imidazol-1-yl)phenyl)propionic acid]	2.7
O=C(N[C@@H](Cc1ccc(-n2c(=O)n(C3CC3)c3cccc(F)c32)cc1)C(=O)O)c1c(F)cccc1Cl [Example 27, (S)-2-(2-chloro-6-fluorobenzoylamino)-3-(4-(3-cyclopropyl-7-fluoro-2-oxo-2,3-dihydro-1H-benzo [d]imidazol-1-yl)phenyl)propionic acid]	8.81
O=C(N[C@@H](Cc1ccc(N2C(=O)C3(CC3)c3ccc(F)cc32)cc1)C(=O)O)c1c(F)cccc1Cl [Example 13]	8.02
O=C(N[C@@H](Cc1ccc(N2C(=O)C3(CC3)c3cccc(F)c32)cc1)C(=O)O)c1c(Cl)cccc1Cl [Example 5, (S)-2-(2,6-dichlorobenzoylamino)-3-(4-(7′-fluoro-2′-oxospiro[cyclopropane-1,3′-indoline]-1′-yl)phenyl)propionic acid]	2.87
CN1CCC(n2c(=O)n(-c3ccc(C[C@H](NC(=O)c4c(F)cccc4Cl)C(=O)O)cc3)c3c(Cl)cccc32)CC1 [Example 29, (S)-3-(4-(7-chloro-3-(1-methylpiperidin-4-yl)-2-oxo-2,3-dihydro-1H-benzo[d]imidazol-1-yl)phenyl)-2-(2-chloro-6-fluorobenzoylamino)propionic acid]	18.1
O=C(N[C@@H](Cc1ccc(N2C(=O)C3(CC3)c3ccccc32)cc1)C(=O)O)c1c(Cl)cccc1Cl [Example 6, (S)-2-(2,6-dichlorobenzamido)-3-(4-(2′-oxospiro[cyclopropane-1,3′-indoline]-1′-yl)phenyl)propionic acid]	5.81
CN(C)c1cc2c(cc1F)C1(CC1)C(=O)N2c1ccc(C[C@H](NC(=O)c2c(F)cccc2Cl)C(=O)O)cc1 [Example 11, (S)-2-(2-chloro-6-fluorobenzamide)-3-(4-(6′-(dimethylamino)-5′-fluoro-2′-oxospiro[cyclopropane-1,3′-indoline]-1′-yl)phenyl)propionic acid]	3.05
